Reference: ChEMBL document CHEMBL4689842, “EUbOPEN Chemogenomics Library wave 1” (2021)

Test system: U2OS
Assay: Incucyte cell viability with U2OS; further: filed as whole numbers so only -1 and 0 and 1 occur
Format: toxicity, cell-based
Conditions: human, 10 µM, compound concentration 10 uM
[1] = 0 h, replicate number 1, timepoint 0 hours
[2] = 6 h, replicate number 2, timepoint 6 hours
[3] = 12 h, replicate number 1, timepoint 12 hours
[4] = 12 h, replicate number 2, timepoint 12 hours
[5] = 18 h, replicate number 1, timepoint 18 hours
[6] = 24 h, replicate number 1, timepoint 24 hours
[7] = 6 h, replicate number 1, timepoint 6 hours
[8] = 18 h, replicate number 2, timepoint 18 hours
[9] = 24 h, replicate number 2, timepoint 24 hours
[10] = 0 h, replicate number 2, timepoint 0 hours

Compound | Growth Rate [1] | Growth Rate [2] | Growth Rate [3] | Growth Rate [4] | Growth Rate [5] | Growth Rate [6] | Growth Rate [7] | Growth Rate [8] | Growth Rate [9] | Growth Rate [10]
Cc1csc2c(N[C@@H](C)CN3CCN(S(=O)(=O)c4ccc(Cl)c(Cl)c4)CC3)ncnc12 | 0 | 1 | 1 | 0 | 0 | 0 |  |  |  | 
CN(C)C(=O)/C(C#N)=C/c1ccc(-c2nc3cnc4[nH]ccc4c3n2C2CCCCC2)o1 | 0 | 1 | 0 | 1 | 0 | 0 | 0 | 1 | 1 | 
C=CC(=O)Nc1cccc(C(=O)Nc2ccc(Nc3cc(-c4[nH]c(SC)nc4C)ccn3)cc2)c1 | 0 |  | 0 |  | 0 | 0 | 0 |  |  | 1
CN(C)c1ncnc(-c2ccc3nc(Nc4cc(CN5CCN(C(=O)CC(F)(F)F)CC5)ccn4)[nH]c3c2)c1Cl [BAY-440] |  | 1 | 0 | 1 | 0 | 0 | 0 | 1 | 1 | 0
CN1CCN(CCOc2cc(OC3CCOCC3)c3c(Nc4c(Cl)ccc5c4OCO5)ncnc3c2)CC1 [SARACATINIB] |  |  | 0 | 1 | 0 | 0 | 0 | 1 | 1 | 
CNc1nc(NCc2ccc(NS(C)(=O)=O)cc2Cl)cc(-c2ccccn2)n1 | 0 |  | 0 |  | 0 | 0 | 0 |  |  | 
Cc1nc(Nc2n[nH]c3c2CN(C(=O)N[C@H](CN(C)C)c2ccccc2)C3(C)C)c2sccc2n1 [PF-03758309] | 1 |  | 0 |  | 0 | 0 | 0 |  |  | 
CN(C)CC#Cc1ccc(OCCCc2sc(N3CCc4cccc(C(=O)Nc5nc6ccccc6s5)c4C3)nc2C(=O)O)c(F)c1 [A-1155463] | 0 |  | 0 | 1 | 0 | 0 | 0 |  |  | 
COc1cccc([C@@H](C)NCCCc2ccccc2Cl)c1.Cl [TECALCET HYDROCHLORIDE] | 0 | 0 | 1 |  | 1 | 1 |  |  | 0 | 
Cc1c(-c2ccc(O)cc2)n(Cc2ccc(OCCN3CCCCCC3)cc2)c2ccc(O)cc12 [BAZEDOXIFENE] |  |  | 1 |  | 0 | 0 |  | 1 |  | 0
CC(C)NCC(O)COc1ccc(CCOCC2CC2)cc1.Cl (centres undefined) [BETAXOLOL HYDROCHLORIDE] | 0 |  |  |  | 1 | 1 |  |  |  | 
C=CC(=O)Nc1cc2c(Nc3ccc(F)c(Cl)c3)ncnc2cc1OCCCN1CCOCC1.Cl.Cl [CANERTINIB DIHYDROCHLORIDE] |  |  | 0 |  | 0 | 0 | 0 |  |  | 
O=C(NCCN1CCOCC1)c1ccc2c(c1)C(=O)c1ccc(Nc3ccc(F)c(NC(=O)c4ccccc4)c3)cc1CC2 [FS-694] |  |  | 1 |  | 0 | 0 |  |  | 1 | 0
COc1cc(-n2cnc3cc(-c4ccc(Cl)cc4)sc3c2=O)ccc1OCCN1CCCC1 | 0 |  | 0 |  | 0 | 0 | 0 |  |  | 
Cl.N#Cc1ccc2[nH]cc(CCCCN3CCN(c4ccc5oc(C(N)=O)cc5c4)CC3)c2c1 [VILAZODONE HYDROCHLORIDE] | 0 | 1 | 1 | 0 | 0 | 0 |  |  |  | 
COc1ncc(-c2ccc3nccc(-c4ccnnc4)c3c2)cc1NS(=O)(=O)c1ccc(F)cc1F [OMIPALISIB] | 1 |  | 1 |  | 0 | 0 | 1 |  |  | 
Cn1cncc1[C@@](O)(COc1ccc(C#N)cc1-c1ccc(OC(F)(F)F)cc1)c1ccc(C#N)cc1 [A-108] | 0 |  | 1 |  | 0 | 0 | 0 |  |  | 
Nc1c(C(=O)NCc2ccc(C(=O)NCCCC3CCCCC3)cc2)cnn1-c1ccccc1 [SR-318] |  |  | 1 |  | 1 | 1 | 1 |  |  | 0
CC(C)C(=O)Nc1n[nH]c2cc(-c3cccc(NS(=O)(=O)C4CC4)c3)ccc12 | 0 |  | 0 |  | 0 | 0 | 0 |  |  | 
Cn1cc(C2=C(c3cn(C4CCN(Cc5ccccn5)CC4)c4ccccc34)C(=O)NC2=O)c2ccccc21 [ENZASTAURIN] | 0 |  | 0 |  | 0 | 0 | 0 |  |  | 
C[C@@H](NCCCc1cccc(C(F)(F)F)c1)c1cccc2ccccc12.Cl [CINACALCET HYDROCHLORIDE] |  | 0 | 1 | 0 | 0 | 0 |  |  |  | 
O=C(NCCCC1CCCCC1)c1ccc(CNC(=O)c2cnn(-c3ccccc3)c2C(F)(F)F)cc1 [SR-321] | 0 | 0 | 1 |  | 1 | 1 | 1 |  |  | 

Compound | Growth Rate [1] | Growth Rate [2] | Growth Rate [3] | Growth Rate [4] | Growth Rate [5] | Growth Rate [6] | Growth Rate [7] | Growth Rate [8] | Growth Rate [9] | Growth Rate [10]
Cc1[nH]c(/C=C2\C(=O)Nc3ccc(S(=O)(=O)N(C)c4cccc(Cl)c4)cc32)c(C)c1C(=O)N1CCN(C)CC1 |  |  | 0 | 1 | 0 | 0 |  |  |  | 0
COc1cc2nccc(Oc3ccc(NC(=O)Nc4cc(C)on4)c(Cl)c3)c2cc1OC.O | 1 |  | 0 |  | 0 | 0 | 0 |  |  | 0
CCOCCn1cc(C(=O)Nc2ccc(-n3nc(-c4cccnc4)cc3C(F)(F)F)cn2)ccc1=O [BI 1935] | 0 |  | 0 |  | 0 | 0 | 0 |  | 1 | 
c1cn2cc(-c3ccc4cn[nH]c4c3)nc(Nc3ccc(N4CCOCC4)cc3)c2n1 [ENTOSPLETINIB] |  | 1 | 1 |  | 1 | 0 |  | 0 |  | 1
Cc1cc(C)cc(-c2cnc3cc(Cl)c(-c4cccc(O)c4)cc3c2OCCCN)c1 |  |  | 0 |  | 0 | 0 | 0 |  |  | 0
CCN(CC)CCCCNc1ncc2cc(-c3cc(OC)cc(OC)c3)c(NC(=O)NC(C)(C)C)nc2n1 [PD-173074] | 1 | 1 | 0 | 1 | 0 | 0 | 0 | 1 |  | 0
CCn1c(=O)c(-c2ccc(Cl)cc2Cl)cc2cnc(Nc3ccc(N4CCNCC4)c(F)c3)nc21 | 0 |  | 0 |  | 0 | 0 | 0 |  |  | 
COc1ccc(Oc2cc(NCCC(F)(F)F)c3ncc(-c4ccc(C(=O)NC5CC5)c(C)c4)n3n2)c(F)c1F [BAY-1217389] | 0 |  | 0 | 1 | 0 | 0 | 0 | 1 |  | 
Cn1cc(-c2[nH]c3cc(NC(=O)[C@H](N)C4CCCCC4)cc4c3c2C=NNC4=O)cn1 | 0 | 1 | 0 | 1 | 0 | 0 | 0 |  |  | 
C[C@@]1(C(=O)Nc2ccc(F)nc2)CCCN1c1nc(Nc2cc(C3CC3)n[nH]2)c2cccn2n1 [BMS-754807] | 0 |  | 0 |  | 0 | 0 | 0 |  |  | 
Cc1nc(-c2cn3c(n2)-c2ccc(-c4cnn(C(C)(C)C(N)=O)c4)cc2OCC3)n(C(C)C)n1 [TASELISIB] | 0 |  | 1 |  | 0 | 0 | 0 | 1 |  | 
Cc1sc2c(c1C)C(c1ccc(Cl)cc1)=N[C@@H](CC(=O)OC(C)(C)C)c1nnc(C)n1-2 | 0 | 1 | 1 |  | 0 | 0 | 0 | 1 | 1 | 
CN1CCC[C@@H]1CCO[C@](C)(c1ccccc1)c1ccc(Cl)cc1.O=C(O)/C=C/C(=O)O [CLEMASTINE FUMARATE] |  | 0 | 0 |  | 0 | 0 |  |  |  | 
OC1(c2ccc(Cl)cc2)CCN(Cc2c[nH]c3ccccc23)CC1 |  | 0 | 0 |  | 0 | 0 |  |  |  | 
CN1CCN(c2ccc(OC(F)(F)F)c(Nc3ncc4c(n3)-c3c(c(C(N)=O)nn3CCO)CC4)c2)CC1 [ONVANSERTIB] | 0 |  | 0 |  | 0 | 0 | 0 |  |  | 
Cc1nc(-c2ccc(-c3ccc(C(=O)N4CCc5cc6c(cc54)C4(CCN(C)CC4)CO6)cc3)c(C)c2)no1 [SB-224289] |  | 1 |  | 1 | 1 | 1 |  |  | 0 | 0
CC(C)(O)CNc1ncc(-c2ccnc(Nc3ccnc(Cl)c3)n2)c(CC2CC2)n1 | 0 |  | 0 |  | 0 | 0 | 1 | 1 | 1 | 
CN1C(=O)c2sccc2N(C)c2nc(Nc3ccc(S(N)(=O)=O)cc3)ncc21 |  |  | 0 |  | 0 | 0 | 0 |  |  | 0
NC(=O)Nc1cc(-c2cccc(F)c2)sc1C(=O)N[C@H]1CCCNC1 [AZD-7762] | 0 |  | 0 |  | 0 | 0 | 0 |  |  | 
CN(C)C(=O)N[C@H]1CC[C@H](CCN2CCN(c3cccc(Cl)c3Cl)CC2)CC1.Cl [CARIPRAZINE HYDROCHLORIDE] | 1 |  | 1 |  | 1 | 1 | 0 |  |  | 
C=CC(=O)Nc1ccc2ncnc(Nc3ccc(OCc4cccc(F)c4)c(Cl)c3)c2c1.Cc1ccc(S(=O)(=O)O)cc1 |  | 0 | 1 |  | 0 | 0 |  |  |  | 1
CN1CCCC(n2nc(Cc3ccc(Cl)cc3)c3ccccc3c2=O)CC1.Cl (centres undefined) [AZELASTINE HYDROCHLORIDE] | 0 | 0 |  | 1 | 1 | 1 |  |  |  | 
